From ChEMBL document CHEMBL1126503, “Syntheis of TRP-VAL non-cleavable dipeptide transition state isosteres” (Bioorg Med Chem Lett, 1993) come the findings set out here.

Active and inactive are the calls of the source. No cut-off for these calls is given here.

The subject of the test is Endothelial cell. The test can be described thus: Tested for inhibition of Endothelin-converting enzyme derived from bovine endothelial cell; NA means inactive uM. The class given is cell-based.
Take `CCOC(=O)/C(=C/C(=O)[C@H](Cc1c[nH]c2ccccc12)NC(=O)OC(C)(C)C)C(C)C`: the inhibition entry is “inactive”.

Take `CC(C)/C(=C/C(=O)[C@H](Cc1c[nH]c2ccccc12)NC(=O)OC(C)(C)C)C(=O)O`: the inhibition result is “inactive”.

For the molecule `COC(=O)[C@@H](NC(=O)[C@H](CC(N)=O)NC(=O)/C(=C\C(=O)[C@H](Cc1c[nH]c2ccccc12)NC(=O)OC(C)(C)C)C(C)C)C(C)C(=O)C(C)(C)C` (stereo partly drawn), the inhibition result was “inactive”.
